Entries after “also recorded” stand apart in the source; their conditions may differ. No end group written: not given here.
Key:
[1] = tested on: gut microbiota in high fat diet murine model; assay: prophylactic treatment with defensins in murine high fat diet model, gut microbiota (Example 7); assay type: in vivo, mice
Description: Protection and preservation of gut microbiota by prophylactic treatment with defensins. Mice: Mice were housed in trios, 4 cages per group. Feed intake was registered daily just before lights were turned off at 6 pm. Individual mice were subjected to experimental procedures in altered order both group and cage wise. Mice were kept at room temperature under a 12-hour light/dark cycle at SPF standard conditions. Diets: For dosing, the average weight was estimated to be 25 grams per mouse. Mice eat approximately 3 grams of feed per mouse per day. Treatment regime: Mice were fed either a high fat diet (HFD) or a low fat (LF) control diet. The HFD contained 4 subgroups; 1 hBD2, 1 HD5, 1 hBD2/HD5 and 1 standard HFD without supplementation of defensins (FIG. 3). Defensin concentration was 1,2 mg hBD2 per kg mouse per day. HD5 was given in equimolar concentration to hBD2. […] Microbial analyses were carried out to study the microbiota of the intestine. Longitudinal 16S characterization was conducted on 4 paired samples from 60 mice, 240 samples in total. Each mouse was sampled prior to diet change, 1 week post diet change, 4 weeks post diet change and at termination, thus ensuring a thorough characterization of the faecal microbiota as a result of defensin treatment.

[2] = tested on: Trinitrobenzene Sulfonic Acid induced colitis; assay: prophylactic murine 8-day Trinitrobenzene Sulfonic Acid induced colitis model (Example 3); assay type: in vivo, BALB/cByJ mice
Protocol: Anti-inflammatory effect of s.c. administration of hBD2 versus s.c. prednisolone in a prophylactic murine, 8-day Trinitrobenzene Sulfonic Acid induced colitis model.
105 male BALB/cByJ mice housed in groups of five per cage were allocated to 7 different treatment groups. Colitis was induced by intracolonic administration of trinitrobenzene sulfonic acid on day 0 under light anaesthesia resulting in significant inflammation and injury of the colonic tissue. The animals were treated with hBD2 at four different dosing levels once daily (1 mg/kg, 0.3 mg/kg, 0.1 mg/kg, and 0.03 mg/kg) or Prednisolone 10 mg/kg once daily dosed subcutaneously under the dorsal skin or PBS as vehicle for 7 days.
(§1) A disease activity index (DAI) scoring system was applied for clinical assessment (FIG. 7). The animals were sacrificed on day 10 and colon removed for histological assessment employing a histological scoring system (FIG. 8).

[3] = tested on: acute graft versus host disease following stem cell transplantation; assay: prophylactic oral HD5 or hBD-2 in murine model of acute graft versus host disease (Example 15); assay type: in vivo, BALB/c mice
Protocol: To determine and assess the efficacy of prophylactic treatment with oral HD5 in a murine model of acute graft versus host disease following stem cell transplantation.
Treatment regime: 22 female BALB/c mice were irradiated with 4.5 Gy (2×498 sec) at intervals of at least 4 hours on day 0. Bone marrow was harvested: hind limbs harvested from 2 female WT C57BL/6 mice aseptically. Skeletal muscle was removed and epiphysis cut away. Lumen of bone flushed with PBS and cells pelleted and taken up. Harvest of T-cells: spleens from 2 female WT C57BL/6 mice were meshed through a […] cell strainer into a PBS filled dish. Cells were taken up in PBS and transferred into a 50 mL falcon tube and spun down. Cells were taken up in 1 mL PBS and 20 μL of CD4 microbead+20 μL CD8 microbeads per spleen added for incubation for 20 min at 4 degrees C. Cells were washed with PBS and applied to MACS separation in order to positively select CD4+ and CD8+ cells. Positively selected T-cells were counted and taken up. Transplantation: directly after the second irradiation, all WT BALB/c recipient mice were injected with 5×1.000.000 BM cells (50 μL) i.v. into the retroorbital venous plexus under isoflurane anesthesia. 22 BALB/c mice were treated with 1.2 mg of HD5/kg BW/day; 1.2 mg of hBD-2/kg BW/day or 100 μL of PBS per day vial oral gavage from day 0-10.
Survival was monitored for 60 days.

[4] = tested on: acute graft versus host disease following stem cell transplantation; assay: prophylactic oral hBD-2 in murine model of acute graft versus host disease following stem cell transplantation (Example 13); assay type: in vivo, BALB/c mice; conditions: for IL-1β from myeloid cells: CD11c+ dendritic cells and CD11b+ Ly6FG− cells; for infiltration with CD45+ leucocytes (FACS analysis): lamina propria of colon (FIG. 50: colon and small intestine); for intestinal T cell and myeloid cell infiltration: lamina propria of the colon (FIG. 51: colon and small intestine)
Protocol: To determine and assess the efficacy of prophylactic treatment with oral hBD-2 in a murine model of acute graft versus host disease following stem cell transplantation.
Treatment regime: 12 female BALB/c mice were irradiated with 4.5 Gy (2×498 sec) at intervals of at least 4 hours on day 0. Bone marrow was harvested: hind limbs harvested from 2 female WT C57BL/6 mice aseptically. Skeletal muscle was removed and epiphysis cut away. Lumen of bone flushed with PBS and cells pelleted and taken up. Harvest of T-cells: spleens from 2 female WT C57BL/6 mice were meshed through a 100 μM cell strainer into a PBS filled dish. Cells were taken up in PBS and transferred into a 50 mL falcon tube and spun down. Cells were taken up in 1 mL PBS and 20 μL of CD4 microbead+20 μL CD8 microbeads per spleen added for incubation for 20 min at 4 degrees C. Cells were washed with PBS and applied to MACS separation in order to positively select CD4+ and CD8+ cells. Positively selected T-cells were counted and taken up. Transplantation: directly after the second irradiation, all WT BALB/c recipient mice were injected with 5×1.000.000 BM cells (50 μL) i.v. into the retroorbital venous plexus under isoflurane anesthesia. 15 BALB/c mice were treated with 1.2 mg of hBD2/kg BW/day in 100 μL PBS per day vial oral gavage from day 0-10.
15 BALB/c mice received vehicle 100 μL PBS per day via oral gavage from day 0-10.
The mice were weighed daily for the initial 7 days and survival was monitored for 100 days.

[5] = tested on: Dextran Sodium Sulphate induced colitis; assay: prophylactic murine 10-day oral Dextran Sodium Sulphate induced colitis model, s.c. and i.v. hBD2 versus i.p. mouse anti TNF-α (Example 1); assay type: in vivo, C57BL/6 mice; conditions: for histological score of distal colon: FIG. 9; for disease activity index (DAI): 10 days
Protocol: Anti-inflammatory effect of s.c. and i.v. administration of hBD2 versus intraperitoneal mouse anti TNF-α in a prophylactic, murine, 10-day, oral Dextran Sodium Sulphate induced colitis model.
70 male C57BL/6 mice housed in groups of five per cage were allocated to 7 different treatment groups. All animals had their drinking water supplemented with DSS 2% for 7 days to induce colitis resulting in significant inflammation and injury of the colonic tissue. The animals were treated with hBD2 dosed intravenously in the tail vein or subcutaneously under the dorsal skin, with mouse anti TNF-α intraperitoneally or PBS as vehicle for 10 days.
as §1

[6] = colon, prophylactic treatment with hBD2
[7] = oral hBD2 1.2 mg/kg/day day 0-10, 15 mice
[8] = oral hBD-2 for 10 days versus PBS

For “human beta defensin 2 (GIGDPVTCLKSGAICHPVFCPRRYKQIGTCGLPGTKCCKKP; not fully specified (bridges); ends and bridges not checked; listed as Homo sapiens) [hBD2]”, the weight gain ([1]; HFD plus hBD2 (1,2 mg per kg per day) versus HFD reference group, 10 week study period) was “gained significantly less weight”, the “abundance of Barnesiella” value [1, 6] was “statistically significant increase in abundance of Barnesiella” and the “abundance of Lactobacillaceae” value [1, 6] was “trend towards lower abundance”. For the same substance, the “steatosis (intra hepatocytic fat accumulation)” value ([1]; liver, HFD mice with prophylactic oral hBD-2 1.2 mg/kg daily, 1.2 mg/kg) was “minimal intra hepatocyte fat accumulation; also recorded: minimal steatosis”, the “microbial presence and abundance (unifrac analysis)” value ([1]; prophylactic oral defensins in high fat diet) was “affected primarily the microbial presence” and the histological score ([2]; FIG. 13, 0.03 and 0.1 mg/kg hBD2 (Group E and F), on par with prednisolone 10 mg/kg) was “statistical significant effect”. For the same substance, the histological score ([2]; Prednisolone 10 mg/kg s.c. once daily, hBD2 at 0.1, 0.3 and 1 mg/kg s.c. once daily) was “highly statistically significant clinical effect on histological score”, the body weight ([2]; hBD2 0.03 and 0.1 mg/kg OD s.c.) was “highly statistically significant increase in body weight” and the mortality ([3]; FIG. 58, oral treatment for 10 days from day of stem cell transplantation) was “significant reduction of mortality”. The “treated animals that had died by day 60” value ([3]; oral 1.2 mg/kg/day day 0-10, six out of eight PBS mice died) was “none”, the “Th1 cytokine production (TNF-α and IFN-γ in CD4 and CD8 T cells)” value ([4]; FACS analysis of the spleen) was “reduced Th 1 cytokine production; also recorded: reduced Th1 cytokine production” and the neutrophils ([4]; FACS analysis of the spleen) was “Reduced proportion of neutrophils; also recorded: reduced number of neutrophils”. The “IL-1β from myeloid cells” value ([4]; FACS analysis of the spleen) was “decrease the production of IL-1β”, the “IL-1β from myeloid cells” value ([4]; FACS analysis of the spleen, listed as hBD-2) was “reduction of IL-1β from myeloid cells; also recorded: Reduced IL-1β production” and the weight loss ([4]; first 7 days following bone marrow transplantation) was “lost statistically significantly less weight”. The “survival (Kaplan-Meyer plot)” value ([4]; hBD2 1.2 mg/kg/day day 0 to day 10 versus vehicle, n=15) was “dramatically increased survival”, the “microarray analysis of colon samples” value ([4]; hBD-2 treated group versus PBS) was “decreased inflammation, leucocyte and myeloid cell migration and tissue remodelling” and the “infiltration with CD45+ leucocytes (FACS analysis)” value [4] was “reduced the infiltration”. The “infiltration with CD45+ leucocytes (FACS analysis)” value ([4]; listed as hBD-2) was “Reduced CD45+ leucocyte cell migration”, the “intestinal T cell and myeloid cell infiltration” value [4] was “reduced” and the “intestinal T cell and myeloid cell infiltration” value ([4]; listed as hBD-2) was “Reduction of intestinal T cell and myeloid cell infiltration”. The “mice still alive by day 100” value [4, 7] was 8 mice, the “share of treated mice that had died by day 35” value [4, 7] was “less than 30%” and the “treated mice that had died by day 35” value ([4]; oral hBD2 1.2 mg/kg/day day 0-10, 15 mice, all 15 vehicle mice had died by day 35) was 4. For the same substance, the “histology score of the colon” value [4, 8] was “highly statistically lower; also recorded: statistically significant reduction of histology score”, the “histology score of the liver” value [4, 8] was “highly statistically lower; also recorded: statistically significant reduction of histology score” and the “histology score of the small intestine” value [4, 8] was “highly statistically lower; also recorded: statistically significant reduction of histology score”. The TNF-α concentration ([4]; serum (FIG. 52a)) was “reduction”, the IL-6 concentration ([4]; serum (FIG. 52b)) was “reduction” and the IL-10 concentration ([4]; serum (FIG. 52c)) was “increased concentration of IL-10”. For the same substance, the “histological score of distal colon” value ([5]; hBD2 0.1 mg/kg compared with mouse anti TNF-α) was “statistically significant superiority”, the “histological score of distal colon” value ([5]; subcutaneous compared with i.v. hBD2 administration) was “superiority over i.v. administration” and the “disease activity index (DAI)” value ([5]; hBD2 intravenous administration) was “significant reduction of DAI”. For the same substance, the histology score ([5]; hBD2 s.c. twice daily, colon day 10) was “highly statistical significant effect on histology score” and the “disease activity index (DAI)” value ([5]; hBD2 subcutaneous route, once or twice daily) was “most significant effect”.

From patent US20200291082A1, “PREVENTION AND TREATMENT OF GRAFT-VERSUS-HOST-DISEASE WITH DEFENSINS” (priority 2017, published 2020)
